# Source: patent publication US20090162351A1, “Transdiscal administration of inhibitors of p38 MAP kinase” (DePuy Spine, Inc., priority 2007, published 2009)
# Where “and” joins values, the source holds several entries; their conditions need not be identical. Identical values can stand only once. Like-named read-outs stand apart in the source and are kept apart here.
# Assays:
# Type in all cases: cell-based
# [1] = system: chondrocytes
# Protocol: The LDH activity was determined calorimetrically in an enzymatic test based on the conversion of lactic acid to pyruvate in the presence of chromagenic substrate tetrazolium salt INT that was reduced to formazan.
# [2] = system: IL-1β-stimulated PGE2 synthesis in bovine chondrocyte pellets / ARC tissues; test: Chondrocyte pellet / ARC culture model: Prostaglandin E2 assay; conditions: for PGE2 synthesis (in words): diacerein at 5.4 μM, rhein at 0.35 μM, 10 ng/ml IL-1β; for effect on IL-1β-stimulated PGE2 synthesis (in words): chondrocyte pellet / ARC model; for maximum inhibition of PGE2: bovine ARC tissues, IL-1β
# Excerpt: (§1) Calf articular cartilage was obtained from the knee joints of eight to twelve month old animals and was processed within twenty-four hours after sacrifice. After removal of muscle and ligament, the cartilage was kept moist using phosphate buffer solution (PBS) to prevent tissue dehydration, and was aseptically peeled off from subchondral bone with a scalpel, and the cartilage pieces were further minced into smaller pieces (˜0.3-0.5×˜0.2-0.5 cm cubes). […] Chondrocytes were then enzymatically isolated from the tissue by incubation for overnight at 37° C. with gentle agitation in 0.2% collagenase in Dulbecco's modified eagle media (DMEM). After removal of tissue debris by filtration through cell strainer and the residual collagenase by 3× wash in PBS, cells were finally resuspended at a density of 2.5×10^6 cells/ml in chondrocyte medium. A 1 ml aliquot of the cell suspension was dispensed into either a 15 ml Falcon centrifuge tube or a 96 deep-well plate and centrifuged at 2000×g for five minutes. The chondrocyte pellets were incubated at 37° C. in a humidified atmosphere of 5% CO2 for two to three weeks with a medium change every other day.
# (§2) As an alternative to using calf articular cartilage, a commercial Aliginate Recovered Chondrocytes (ARC) system was also used (Articular Engineering, LLC (Northbrook, Ill.)). Use of the commercial system cut down on labor and time in producing chondrocyte pellet. This system produced cartilaginous tissue in vitro using bovine chondrocytes. The first step consisted of culturing chondrocytes in alginate under conditions optimal for the formation of a cell-associated matrix (CM). The second step allowed these cells with their CM, after recovery, to rapidly form and become integrated into a solid mass of cartilage on a porous insert within two weeks.
# (§3) Chondrocyte pellets were washed once with 1 ml of Chondrocyte Stimulation Medium and equilibrated in the same medium at room temperature for fifteen to thirty minutes. Compounds were dissolved in H2O, Ethanol or dimethyl sulfoxide (DMSO) (10^−2 M) according to suppliers' instructions and further diluted with Chondrocyte Stimulation Medium to the required concentrations. DMSO concentrations in the culture media should not exceed 1%; this concentration of DMSO has no effect on cartilage proteoglycan metabolism in response to cytokines.
# (§4) The pellets were first treated with compounds at desired concentrations at 37° C. for one hour and then incubated for three to five days in the absence or presence of 10 ng/ml of IL-1β. At the end of the incubation, media and pellets were harvested and frozen for further analysis. Pellets were also fixed as needed in 4% (w/v) paraformaldehyde in PBS for histology analysis.
# Prostaglandin E2 (PGE2) was measured with a STAT-Prostaglandin E2 EIA ELISA kit (Cayman Biochemicals). This assay is based on the competition between PGE2 from 50 μl samples and a PGE2-alkaline phosphatase conjugate for a limited amount of PGE2 monoclonal antibody in a reaction volume of 150 μl at room temperature for one hour. The antibody-PGE2 complex bound to a goat polyclonal anti-mouse IgG that had been previously attached to the well. After washing to remove any unbound reagents, para-nitrophenyl phosphate (pNPP) was added to the well. The product of this enzymatic reaction absorbs strongly at 412 nm. Because of the large range in response to IL-1β and other cytokines, PGE2 values were converted to log scale prior to doing t-tests.
# To characterize the relative efficacies among different p38 MAP kinase inhibitors, dose-response curves were generated for both PGE2 and NO assays. […] After one hour of treatment, ARCs were stimulated with or without 7.5 ng/ml IL-1β and continued to incubate for five days before assay. The IL-1β-stimulated PGE2 synthesis or NO production was first calculated by subtraction of PGE2/NO levels in the absence of IL-1β from that in the presence of IL-1β. […]
# [3] = system: IL-1β-stimulated NO production in bovine chondrocyte pellets / ARC tissues; test: Chondrocyte pellet / ARC culture model: total nitrite and nitrate assay; conditions: for effect on IL-1β-stimulated NO production (in words): chondrocyte pellet / ARC model
# Excerpt: as §1, §2, §3, §4
# Nitrate/Nitrite levels were measured using the Griess reaction (Green L. C. et al., “Analysis of Nitrate, Nitrite, and [15N]nitrate in Biological Fluids,” Anal. Biochem. 126: 131-138 (1982)) with a Nitrate/Nitrite Colorimetric Assay Kit (Cayman Chemicals), the contents of which are incorporated herein by reference. The assay involved a simple two-step process. The first step involved conversion of nitrate in 50 μl of culture medium to nitrite utilizing nitrate reductase in a reaction volume of 100 μl at room temperature for two hours. The second step involved the addition of 50 μl of both Griess Reagent 1 and 2, which converted nitrite into a deep purple azo compound in ten minutes. Photometric measurement of the absorbance at 540 or 550 nm due to this azo chromophore accurately determined nitrite concentration. This assay kit cannot be used for RPMI (Roswell Park Memorial Institute) derived tissue culture medium due to interference with the colorimetric reaction.
# To characterize the relative efficacies among different p38 MAP kinase inhibitors, dose-response curves were generated for both PGE2 and NO assays. […] After one hour of treatment, ARCs were stimulated with or without 7.5 ng/ml IL-1β and continued to incubate for five days before assay. […]
# [4] = system: NO production in injured bovine cartilage explants; test: Drop tower model: NO production in injured cartilage explants; conditions: for inhibition at 10 µM: Bos taurus, injured cartilage explants; for effect on NO production (in words): drop tower model, cocktail of cytokines
# Protocol: In the second method, the explants were cultured at 37° C., 5% CO2 either in stimulated or non-stimulated conditioned medium as described above or in defined medium containing DMEM supplemented with 1% FCS, 1× insulin-transferrin-sodium selenite media supplement and Antibiotics-Antimycotics in the presence or absence of a cocktail of cytokines containing 10 ng/ml of IL-1β, 100 ng/ml of TNFα and 5 ng/ml of IFN-γ. The compounds were solubilized in H2O, Ethanol or DMSO (10^−2 M) according to suppliers' instructions and further diluted with either conditioned medium stimulated with or without LPS to the required concentrations. DMSO concentrations in the culture media never exceeded 1%. This concentration of DMSO has no effect on cartilage proteoglycan metabolism in response to cytokines. The injured and noninjured cartilage explants were treated with compound-containing medium for three to five days. The specimens were first treated with compounds at desired concentrations at 37° C. for one hour and then incubated for three to five days in the absence or presence of the cocktail of cytokines. At the end of the incubation, media and cartilage samples were harvested and frozen for further analysis.
# Nitrate/Nitrite was measured using the Griess reaction (Green L. C. et al., “Analysis of Nitrate, Nitrite, and [15N]nitrate in Biological Fluids,” Anal. Biochem. 126: 131-138 (1982)) with a Nitrate/Nitrite Colorimetric Assay Kit (Cayman Chemicals), as described in Example III above.
# [5] = system: TNFα in human whole blood; test: TNFα inhibition, human whole blood assay (h-WBA / HWB)
# [6] = chondrocyte pellet / ARC model, within the tested concentrations
# [7] = Bos taurus, Chondrocyte, 120 h, bovine ARCs, 7.5 ng/ml IL-1β, five days, sigmoidal dose-response fit, read-out: PGE2, IC50
# [8] = Bos taurus, Chondrocyte, Table 3B, read-out: PGE2 Inhibition, Pellet Assay, IC50
# [9] = Bos taurus, Chondrocyte, 120 h, bovine ARCs, 7.5 ng/ml IL-1β, five days, sigmoidal dose-response fit, read-out: NO, IC50
# [10] = Bos taurus, Chondrocyte, at 0.5 μM
# [11] = bovine ARCs, 7.5 ng/ml IL-1β, five days, sigmoidal dose-response fit, read-out: PGE2, IC50
# [12] = bovine ARCs, 7.5 ng/ml IL-1β, five days, sigmoidal dose-response fit, read-out: NO, IC50
smiles,measurement,setting,value
"CC(=O)Oc1cccc2c1C(=O)c1c(OC(C)=O)cc(C(=O)O)cc1C2=O [Diacerein, reference compound]","cytotoxicity to chondrocytes, LDH (in words)",[1],cytotoxicity at higher concentrations
same,PGE2 synthesis (in words),[2]; five days,no effect
same,NO production (in words),"[3]; diacerein at 5.4 μM, rhein at 0.35 μM, 10 ng/ml IL-1β, five days",significantly inhibited
"OCCC#Cc1nc(-c2ccc(F)cc2)c(-c2ccncc2)n1CCCc1ccccc1 [JNJ 3026582 (RWJ 67657), 4-[4-(4-fluorophenyl)-1-(3-phenylpropyl)-5-(4-pyridinyl)-1H-imidazol-2-yl]-3-butyn-1-ol]",inhibition at 10 µM,[4],66%
same,effect on NO production (in words),[4],dose-dependently inhibited
same,"cytotoxicity to chondrocytes, LDH (in words)",[1]; [6],little cytoxicity
same,IC50,[2]; [7],421 nM
same,IC50,[2]; [8],421 nM
same,effect on IL-1β-stimulated PGE2 synthesis (in words),[2],inhibited
same,IC50,[3]; [9],119 nM
same,IC50,"[3]; Bos taurus, Chondrocyte, Table 3B, read-out: NO Inhibition, Pellet Assay, IC50",119 nM
same,effect on IL-1β-stimulated NO production (in words),[3],inhibited
C[C@H](Nc1nccc(-c2c(-c3ccc(F)cc3)nc3nc(N)ccn23)n1)c1ccccc1 [JNJ 7583979 (RWJ 351958)],IC50,"[5]; Homo sapiens, read-out: inhibitor of TNF human whole blood (HWB), IC50",5 nM
same,"cytotoxicity to chondrocytes, LDH (in words)",[1]; [6],little cytoxicity
same,inhibition at 0.5 µM,[2]; [10],100%
same,effect on IL-1β-stimulated PGE2 synthesis (in words),[2],significantly inhibited
same,inhibition at 0.5 µM,[3]; [10],50%
same,effect on IL-1β-stimulated NO production (in words),[3],significantly inhibited
CC(=O)N1CCN(c2c(-c3ccncc3)c(-c3ccc(F)cc3)c(C#N)n2C)CC1 [JNJ 17089540 (RWJ 669307)],effect on NO production (in words),[4],dose-dependently inhibited
same,"cytotoxicity to chondrocytes, LDH (in words)",[1],little cytoxicity
same,IC50,"[2]; Table 3B, read-out: PGE2 Inhibition, Pellet Assay, IC50",29600 nM
same,IC50,[2]; [11],29600 nM
same,IC50,"[3]; Table 3B, read-out: NO Inhibition, Pellet Assay, IC50",4900 nM
same,IC50,[3]; [12],4920 nM
same,effect on IL-1β-stimulated NO production (in words),[3],weaker inhibitor
"CO[C@H]1C[C@@H]2CC[C@@H](C)[C@@](O)(O2)C(=O)C(=O)N2CCCC[C@H]2C(=O)O[C@H]([C@H](C)C[C@@H]2CC[C@@H](O)[C@H](OC)C2)CC(=O)[C@H](C)/C=C(\C)[C@@H](O)[C@@H](OC)C(=O)[C@H](C)C[C@H](C)/C=C/C=C/C=C/1C [Rapamycin, reference compound]","cytotoxicity to chondrocytes, LDH (in words)",[1],little toxicity
same,inhibition at 10 µM,"[2]; Bos taurus, Chondrocyte, at 10 μM",47%
same,inhibition at 10 µM,"[3]; Bos taurus, Chondrocyte",30%
"O=C(O)c1cc(O)c2c(c1)C(=O)c1cccc(O)c1C2=O [Rhein, reference compound]","cytotoxicity to chondrocytes, LDH (in words)",[1],higher toxicity
same,PGE2 synthesis (in words),[2]; five days,no effect
C[C@@H]1CN(Cc2ccc(F)cc2)[C@@H](C)CN1C(=O)c1cc2cc(C(=O)C(=O)N(C)C)[nH]c2cc1Cl [SCIO-282 (SD 282)],effect on NO production (in words),[4],dose-dependently inhibited
same,EC50,"[5]; 10× diluted, read-out: inhibits TNFα h-WBA (EC50)",70 nM
same,"cytotoxicity to chondrocytes, LDH (in words)",[1]; [6],little cytoxicity
same,maximum inhibition of PGE2,[2],96%
same,IC50,[2]; [11],583 nM and 582 nM
same,effect on IL-1β-stimulated PGE2 synthesis (in words),[2],inhibited
same,IC50,[3]; [12],74 nM and 74.4 nM
same,effect on IL-1β-stimulated NO production (in words),[3],inhibited
C[C@@H]1CN(Cc2ccc(F)cc2)[C@@H](C)CN1C(=O)c1cc2c(C(=O)C(=O)N(C)C)cn(C)c2cc1Cl [SCIO-469 (SD 469)],effect on NO production (in words),[4],inhibited
same,EC50,"[5]; Homo sapiens, 10× diluted, read-out: inhibits TNFα h-WBA (EC50)",1600 nM
same,EC50,"[5]; Homo sapiens, Table 2, read-out: TNFα Inhibition h-WBA (EC50)",1600 nM
same,increase of LDH level,"[1]; bovine, 100000 nM",121%
same,IC50,[2]; [7],107 nM
same,IC50,[2]; [8],18 nM
same,maximum inhibition of PGE2,[2],62%
same,IC50,[2]; [11],107 nM
same,IC50,[3]; [9],18 nM
same,IC50,"[3]; Bos taurus, Chondrocyte, Table 3B, unit inferred, read-out: NO Inhibition, Pellet Assay, IC50",107 nM
same,IC50,[3]; [12],18 nM
"CC(C(=O)O)c1ccc(C(=O)c2cccs2)cc1 (centres unmarked) [Suprofen, reference compound]",IC50,[2]; [8],0.812 nM
same,inhibition at 10 µM,"[3]; Bos taurus, Chondrocyte",20%
"COc1ccc(-n2nc(CCC(=O)N(C)O)cc2-c2ccc(Cl)cc2)cc1 [Tepoxalin, reference compound]",inhibition at 10 µM,[4],100%
same,IC50,[2]; [8],3280 nM
same,inhibition at 10 µM,"[3]; Bos taurus, Chondrocyte",50%
"Cc1ccc(C(=O)c2ccc(CC(=O)O)n2C)cc1 [Tolmetin, reference compound]",IC50,[2]; [8],673 nM
same,"NO Inhibition, Pellet Assay (in words)",[3]; Table 3B,No effect
